In ChEMBL document CHEMBL1201862, “PubChem BioAssay data set” (2004):
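Five compound concentrations were applied to cells in 96-well plates for 48 hours; endpoints were derived by simple linear interpolation of the resulting dose-response curve. GI50 = concentration required for 50% inhibition of growth.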 The source made the active and inactive calls. Cut-off read from the data, not from the text of the source: active = GI50 up to about 1.1 µM and inactive = higher.

Key:
Assay in all cases: inhibition of tumour cell growth, NCI panel, 48 h
OVCAR-4 = system: OVCAR-4
RXF 631 = system: RXF 631
Malme-3M = system: Malme-3M
OVCAR-5 = system: OVCAR-5
OVCAR-8 = system: OVCAR-8
SF-539 = system: SF-539
DMS-114 = system: DMS-114
HOP-62 = system: HOP-62
K562 = system: K562
SNB-19 = system: SNB-19
UO-31 = system: UO-31
CCRF-CEM = system: CCRF-CEM
TK-10 = system: TK-10
HCT-15 = system: HCT-15
HOP-18 = system: HOP-18
A549 = system: A549
UACC-62 = system: UACC-62
U-251 = system: U-251
786-0 = system: 786-0
SK-MEL-2 = system: SK-MEL-2
RXF 393 = system: RXF 393
IGROV-1 = system: IGROV-1
XF498 = system: XF498
SF-268 = system: SF-268
KM-20L2 = system: KM-20L2
KM12 = system: KM12
M19-MEL = system: M19-MEL
HCT-116 = system: HCT-116
SK-MEL-5 = system: SK-MEL-5
SF-295 = system: SF-295
CAKI-1 = system: CAKI-1
OVCAR-3 = system: OVCAR-3
LXFL 529 = system: LXFL 529
DLD-1 = system: DLD-1
RPMI-8226 = system: RPMI-8226
SNB-78 = system: SNB-78
HT-29 = system: HT-29
HL-60 = system: HL-60
EKVX = system: EKVX
SNB-75 = system: SNB-75
M14 = system: M14
HOP-92 = system: HOP-92
NCI-H23 = system: NCI-H23
A498 = system: A498
MOLT-4 = system: MOLT-4
NCI-H522 = system: NCI-H522
UACC-257 = system: UACC-257
LOX IMVI = system: LOX IMVI
SK-OV-3 = system: SK-OV-3
NCI-H460 = system: NCI-H460
ACHN = system: ACHN
NCI-H226 = system: NCI-H226
SW-620 = system: SW-620
DMS-273 = system: DMS-273
COLO 205 = system: COLO 205
SK-MEL-28 = system: SK-MEL-28
HCC 2998 = system: HCC 2998
SN12C = system: SN12C
SR = system: SR

In the case of `CCOc1ccc(Nc2nc(C)c(C(=O)/C=C/c3ccc(Cl)cc3Cl)s2)cc1`, the GI50 (OVCAR-4) is reported as 10.8 µM (inactive), the GI50 (RXF 631) is reported as 21.8 µM (inactive) and the GI50 (Malme-3M) is reported as 26.3 µM (inactive). For the same compound, the GI50 (OVCAR-5) was 40.8 µM (inactive), the GI50 (OVCAR-8) was 21.4 µM (inactive) and the GI50 (SF-539) was 27.8 µM (inactive). The GI50 (DMS-114) was 24.9 µM (inactive), the GI50 (HOP-62) was 31.3 µM (inactive) and the GI50 (K562) was 33.2 µM (inactive). The GI50 (SNB-19) was 31.4 µM (inactive), the GI50 (UO-31) was 25.2 µM (inactive) and the GI50 (CCRF-CEM) was 29.8 µM (inactive). The GI50 (TK-10) was 22.6 µM (inactive), the GI50 (HCT-15) was 22.2 µM and the GI50 (HOP-18) was 26.3 µM (inactive). The GI50 (A549) was 23.2 µM (inactive), the GI50 (UACC-62) was 24 µM (inactive) and the GI50 (U-251) was 19.8 µM (inactive). The GI50 (786-0) was 19.5 µM (inactive), the GI50 (SK-MEL-2) was 24 µM (inactive) and the GI50 (RXF 393) was 17.7 µM (inactive). For the same compound, the GI50 (IGROV-1) was 35.5 µM (inactive), the GI50 (XF498) was 19.6 µM (inactive) and the GI50 (SF-268) was 24.7 µM (inactive). The GI50 (KM-20L2) was 25.4 µM (inactive), the GI50 (KM12) was 18.3 µM (inactive) and the GI50 (M19-MEL) was 26.1 µM (inactive). For the same compound, the GI50 (HCT-116) was 21.1 µM (inactive), the GI50 (SK-MEL-5) was 20 µM (inactive) and the GI50 (SF-295) was 20 µM (inactive). The GI50 (CAKI-1) was 27.1 µM (inactive), the GI50 (OVCAR-3) was 20.2 µM (inactive) and the GI50 (LXFL 529) was 18.8 µM (inactive). For the same compound, the GI50 (DLD-1) was 26.5 µM (inactive), the GI50 (RPMI-8226) was 46.9 µM (inactive) and the GI50 (SNB-78) was 21.4 µM (inactive). The GI50 (HT-29) was 19.7 µM (inactive), the GI50 (HL-60) was 27.2 µM (inactive) and the GI50 (EKVX) was 31.1 µM (inactive). For the same compound, the GI50 (SNB-75) was 18.5 µM (inactive), the GI50 (M14) was 23.9 µM (inactive) and the GI50 (HOP-92) was 30 µM (inactive). The GI50 (NCI-H23) was 22.6 µM (inactive), the GI50 (A498) was 22.8 µM (inactive) and the GI50 (MOLT-4) was 23 µM (inactive). The GI50 (NCI-H522) was 21.1 µM (inactive), the GI50 (UACC-257) was 24.6 µM (inactive) and the GI50 (LOX IMVI) was 16.8 µM (inactive). The GI50 (SK-OV-3) was 28.6 µM (inactive), the GI50 (NCI-H460) was 21.4 µM (inactive) and the GI50 (ACHN) was 27.4 µM (inactive). The GI50 (NCI-H226) was 18.2 µM (inactive), the GI50 (SW-620) was 20.6 µM (inactive) and the GI50 (DMS-273) was 21.4 µM (inactive). The GI50 (COLO 205) was 17.8 µM (inactive), the GI50 (SK-MEL-28) was 22.7 µM (inactive) and the GI50 (HCC 2998) was 23.9 µM (inactive). The GI50 (SN12C) was 19.3 µM (inactive) and the GI50 (SR) was 28.6 µM (inactive).

In the case of `O=[N+]([O-])c1ccc(C2SCc3nc4ccccc4n32)cc1` (stereo not given), the GI50 (OVCAR-4) is reported as 76.9 µM (inactive), the GI50 (RXF 631) is reported as > 100 µM (inactive) and the GI50 (Malme-3M) is reported as 40.1 µM (inactive). For the same compound, the GI50 (OVCAR-5) was 17.6 µM (inactive), the GI50 (OVCAR-8) was > 100 µM (inactive) and the GI50 (SF-539) was > 100 µM (inactive). For the same compound, the GI50 (DMS-114) was 35.1 µM (inactive), the GI50 (HOP-62) was > 100 µM (inactive) and the GI50 (K562) was 33.4 µM (inactive). For the same compound, the GI50 (SNB-19) was > 100 µM (inactive), the GI50 (UO-31) was 24.8 µM (inactive) and the GI50 (CCRF-CEM) was 65.9 µM (inactive). For the same compound, the GI50 (TK-10) was 43.4 µM (inactive), the GI50 (HOP-18) was 88.3 µM (inactive) and the GI50 (A549) was 50.4 µM (inactive). For the same compound, the GI50 (UACC-62) was 32.1 µM (inactive), the GI50 (U-251) was 93.8 µM (inactive) and the GI50 (786-0) was > 100 µM (inactive). The GI50 (SK-MEL-2) was 60.1 µM (inactive), the GI50 (RXF 393) was 36.7 µM (inactive) and the GI50 (IGROV-1) was 19.8 µM (inactive). The GI50 (XF498) was 12.3 µM (inactive), the GI50 (SF-268) was > 100 µM (inactive) and the GI50 (KM-20L2) was > 100 µM (inactive). For the same compound, the GI50 (KM12) was 73.3 µM (inactive), the GI50 (M19-MEL) was 81.8 µM (inactive) and the GI50 (SK-MEL-5) was 17.4 µM (inactive). The GI50 (SF-295) was 32.6 µM (inactive), the GI50 (CAKI-1) was 61.4 µM (inactive) and the GI50 (LXFL 529) was 43.4 µM (inactive). For the same compound, the GI50 (DLD-1) was 89.7 µM (inactive), the GI50 (SNB-78) was > 100 µM (inactive) and the GI50 (HT-29) was > 100 µM (inactive). The GI50 (HL-60) was 43.9 µM (inactive), the GI50 (EKVX) was 44.3 µM (inactive) and the GI50 (HOP-92) was 23.1 µM (inactive). The GI50 (NCI-H23) was 26.7 µM (inactive), the GI50 (A498) was 88.3 µM (inactive) and the GI50 (MOLT-4) was 28.1 µM (inactive). The GI50 (UACC-257) was 42.4 µM (inactive), the GI50 (LOX IMVI) was 74.1 µM (inactive) and the GI50 (SK-OV-3) was 92.9 µM (inactive). The GI50 (NCI-H460) was > 100 µM (inactive), the GI50 (ACHN) was 47.8 µM (inactive) and the GI50 (NCI-H226) was 29.2 µM (inactive). The GI50 (SW-620) was > 100 µM (inactive), the GI50 (DMS-273) was 54.1 µM (inactive) and the GI50 (COLO 205) was > 100 µM (inactive). For the same compound, the GI50 (SK-MEL-28) was > 100 µM (inactive), the GI50 (SN12C) was 56.1 µM (inactive) and the GI50 (SR) was 53.6 µM (inactive).
